Values after ≈ are worked out from the molar mass of the structure shown.
What was measured:
Format in all cases: functional
Neisseria gonorrhoeae = assay: Antimicrobial activity against Neisseria gonorrhoeae
SW-1736 = assay: Compound was evaluated against Human cell line thyroid SW1736
SK-N-SH = assay: Compound was evaluated against Human cell line neuroblast SK-N-SH
DU-145 = assay: Compound was evaluated against Human cell line prostate DU-145
P388 = assay: Compound was evaluated against P388 mouse Leukemia cell line; details: read-out: ED50 (the source's name)
FaDu = assay: Compound was evaluated against Human cell line pharynx FADU
NCI-H460 = assay: Compound was evaluated against Human cell line lung-NSC NCI-H460
KM-20L2 = assay: Compound was evaluated against Human cell line colon KM20L2
SK-MEL-5 = assay: Compound was evaluated against Human cell line melanoma SK-MEL-5
SF-295 = assay: Compound was evaluated against Human cell line CNS SF-295
A498 = assay: Compound was evaluated against Human cell line renal A498
OVCAR-3 = assay: Compound was evaluated against Human cell line ovarian OVCAR-3
BXPC-3 = assay: Compound was evaluated against Human cell line pancreas BXPC-3
Staphylococcus aureus = assay: Antimicrobial activity against Staphylococcus aureus

Row | SMILES | MIC (Neisseria gonorrhoeae) | GI50 (SW-1736) | GI50 (SK-N-SH) | GI50 (DU-145) | EC50 (P388) | GI50 (FaDu) | GI50 (NCI-H460) | GI50 (KM-20L2) | GI50 (SK-MEL-5) | GI50 (SF-295) | GI50 (A498) | GI50 (OVCAR-3) | GI50 (BXPC-3) | MIC (Staphylococcus aureus)
1 | COc1ccc(/C=C\c2cc(OC)c(OC)c(OC)c2)cc1OP(=O)([O-])O.[Na+] | 100 ug disk-1 | – | – | – | – | – | – | – | – | – | – | – | – | –
2 | COc1ccc([C@@H](O)Cc2cc(OC)c(OC)c(OC)c2)cc1O | – | > 10 µg/mL | > 10 µg/mL | 7.6 µg/mL (≈ 22.7 µM) | 32.9 µg/mL (≈ 98.4 µM) | 4.8 µg/mL (≈ 14.4 µM) | 9 µg/mL (≈ 26.9 µM) | – | – | – | – | – | – | –
3 | COc1ccc(CCc2cc(OC)c(OC)c(OC)c2)c(O)c1O | 25 ug disk-1 | – | – | – | – | – | – | – | – | – | – | – | – | –
4 | COc1ccc([C@@H](O)[C@H](O)c2cc(OC)c(OC)c(OC)c2)cc1O | – | 6.1 µg/mL (≈ 17.4 µM) | 1.5 µg/mL (≈ 4.28 µM) | 3.5 µg/mL (≈ 9.99 µM) | 19 µg/mL (≈ 54.2 µM) | 2.1 µg/mL (≈ 5.99 µM) | 4.4 µg/mL (≈ 12.6 µM) | 8.2 µg/mL (≈ 23.4 µM) | 4.9 µg/mL (≈ 14 µM) | 5.7 µg/mL (≈ 16.3 µM) | > 10 µg/mL | 4.5 µg/mL (≈ 12.8 µM) | > 10 µg/mL | –
5 | COc1ccc([C@H](O)[C@@H](O)c2cc(OC)c(OC)c(OC)c2)cc1O | – | 1.8 µg/mL (≈ 5.14 µM) | 0.28 µg/mL (≈ 0.799 µM) | 2.1 µg/mL (≈ 5.99 µM) | 2 µg/mL (≈ 5.71 µM) | 0.6 µg/mL (≈ 1.71 µM) | 2.5 µg/mL (≈ 7.14 µM) | 0.52 µg/mL (≈ 1.48 µM) | 0.7 µg/mL (≈ 2 µM) | 0.52 µg/mL (≈ 1.48 µM) | 0.91 µg/mL (≈ 2.6 µM) | 0.38 µg/mL (≈ 1.08 µM) | 3.9 µg/mL (≈ 11.1 µM) | –
6 | COc1ccc(/C=C\c2cc(OC)c(OC)c(OC)c2)cc1O [COMBRETASTATIN A4] | 50 ug disk-1 | 0.00071 µg/mL (≈ 0.00224 µM) | 0.00026 µg/mL (≈ 0.000822 µM) | 0.00076 µg/mL (≈ 0.0024 µM) | 0.00027 µg/mL (≈ 0.000853 µM) | 0.00065 µg/mL (≈ 0.00205 µM) | 0.00056 µg/mL (≈ 0.00177 µM) | 0.061 µg/mL (≈ 0.193 µM) | 0.0002 µg/mL (≈ 0.000632 µM) | < 0.001 µg/mL | – | < 0.001 µg/mL | 0.39 µg/mL (≈ 1.23 µM) | –
7 | COc1ccc(/C=C\c2cc(OC)c(OC)c(OC)c2)c(O)c1O [COMBRETASTATIN A-1] | 50 ug disk-1 | – | – | – | – | – | – | – | – | – | – | – | – | 100 ug disk-1
